Data published in the supplement of paper PMC6045584.
± gives the standard deviation of the averaged measurements.

Tests used:
ABIRATERONE = compound: C[C@]12CC[C@H](O)CC1=CC[C@@H]1[C@@H]2CC[C@]2(C)C(c3cccnc3)=CC[C@@H]12 [ABIRATERONE]; assay: surviving fraction relative to DMSO-only wells; higher = less growth inhibition; conditions: exposure time: 5 days
Procedure, shortened: (§1)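 Tumour cell lines were seeded in log phase at 250–500 cells per well into 384-well plates. Starting 24 hours later, inhibitors were present continuously for five days at 0.5, 1, 5, 10, 50, 100, 500 and 1000 nM. Surviving fraction, from CellTiter-Glo luminescence, is normalised to the median of DMSO-only wells. Three screens per line were required, with replicate Pearson r >0.7 and median Z' >0.3 for a line to be kept.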

[1] = compound: CCn1c(C(=O)N(C2CC2)C2CC2)cc2c3c(ncn3C)c(Nc3cc(C)n(C)n3)nc21; assay: as above; conditions: exposure time: 5 days
Procedure, shortened: as §1

| Test System | surviving fraction (ABIRATERONE; 0.5 nM) | surviving fraction (ABIRATERONE; 1 nM) | surviving fraction (ABIRATERONE; 5 nM) | surviving fraction (ABIRATERONE; 10 nM) | surviving fraction (ABIRATERONE; 50 nM) | surviving fraction (ABIRATERONE; 100 nM) | surviving fraction (ABIRATERONE; 500 nM) | surviving fraction (ABIRATERONE; 1000 nM) | surviving fraction ([1]; 0.5 nM) | surviving fraction ([1]; 1 nM) | surviving fraction ([1]; 5 nM) | surviving fraction ([1]; 10 nM) | surviving fraction ([1]; 50 nM) | surviving fraction ([1]; 100 nM) | surviving fraction ([1]; 500 nM) | surviving fraction ([1]; 1000 nM) |
| --- | --- | --- | --- | --- | --- | --- | --- | --- | --- | --- | --- | --- | --- | --- | --- | --- |
| JURKAT HAEMATOPOIETIC AND LYMPHOID TISSUE | 1.09 ± 0.027 | 1.106 ± 0.0066 | 1.09 ± 0.022 | 1.07 ± 0.016 | 1.08 ± 0.018 | 1.03 ± 0.037 | 1.01 ± 0.022 | 0.995 ± 0.029 | 1.092 ± 0.0091 | 1.08 ± 0.017 | 1.09 ± 0.021 | 1.05 ± 0.037 | 1.05 ± 0.036 | 1.04 ± 0.034 | 1.08 ± 0.018 | 1.09 ± 0.014 |
| KPD BONE | 0.966 ± 0.05 | 0.993 ± 0.054 | 1.02 ± 0.012 | 1.07 ± 0.043 | 1.07 ± 0.054 | 1.09 ± 0.041 | 1.01 ± 0.035 | 0.976 ± 0.054 | 1.01 ± 0.074 | 0.951 ± 0.089 | 1.01 ± 0.043 | 0.991 ± 0.074 | 1.04 ± 0.047 | 1.01 ± 0.14 | 0.945 ± 0.017 | 0.99 ± 0.056 |
| LM7 BONE | 0.954 ± 0.014 | 0.963 ± 0.097 | 1.07 ± 0.15 | 1.01 ± 0.026 | 1.05 ± 0.021 | 1.06 ± 0.094 | 0.97 ± 0.058 | 0.979 ± 0.038 | 0.967 ± 0.042 | 0.976 ± 0.03 | 1.07 ± 0.041 | 1.03 ± 0.097 | 1.04 ± 0.047 | 1.06 ± 0.073 | 0.994 ± 0.12 | 0.896 ± 0.03 |
| LNCAP PROSTATE | 0.875 ± 0.08 | 0.996 ± 0.24 | 0.92 ± 0.026 | 0.869 ± 0.11 | 0.93 ± 0.1 | 0.976 ± 0.15 | 0.84 ± 0.12 | 0.791 ± 0.14 | 0.985 ± 0.1 | 0.852 ± 0.067 | 0.908 ± 0.19 | 0.861 ± 0.12 | 0.969 ± 0.032 | 0.915 ± 0.013 | 0.802 ± 0.03 | 0.806 ± 0.067 |
| MCF7 BREAST | 0.961 ± 0.071 | 0.917 ± 0.059 | 0.902 ± 0.098 | 0.945 ± 0.027 | 1.01 ± 0.024 | 0.874 ± 0.039 | 1.05 ± 0.066 | 0.921 ± 0.017 | 0.815 ± 0.049 | 0.841 ± 0.028 | 0.844 ± 0.025 | 0.828 ± 0.03 | 0.913 ± 0.048 | 0.862 ± 0.026 | 0.889 ± 0.065 | 0.854 ± 0.039 |
| MDAMB134 BREAST | 1.12 ± 0.043 | 0.896 ± 0.18 | 1.36 ± 0.096 | 0.943 ± 0.063 | 1.12 ± 0.049 | 1.15 ± 0.37 | 0.927 ± 0.13 | 0.965 ± 0.098 | 1.16 ± 0.2 | 1.07 ± 0.086 | 1.15 ± 0.23 | 0.87 ± 0.014 | 1.04 ± 0.14 | 0.986 ± 0.14 | 0.907 ± 0.0014 | 0.976 ± 0.025 |
| MDAMB157 BREAST | 0.85 ± 0.017 | 0.892 ± 0.1 | 0.912 ± 0.081 | 1.12 ± 0.1 | 1.01 ± 0.092 | 1.09 ± 0.14 | 1.01 ± 0.1 | 0.957 ± 0.11 | 0.935 ± 0.14 | 0.923 ± 0.06 | 0.93 ± 0.042 | 0.935 ± 0.071 | 0.836 ± 0.059 | 0.89 ± 0.068 | 0.837 ± 0.059 | 0.829 ± 0.053 |
| MDAMB231 BREAST | 0.991 ± 0.011 | 0.998 ± 0.048 | 1.02 ± 0.023 | 0.992 ± 0.031 | 1.02 ± 0.013 | 1.03 ± 0.024 | 1.02 ± 0.014 | 0.942 ± 0.027 | 0.965 ± 0.026 | 0.9749 ± 0.0034 | 0.975 ± 0.038 | 1.01 ± 0.011 | 1.01 ± 0.02 | 1.02 ± 0.014 | 0.926 ± 0.02 | 0.9 ± 0.025 |
| MDAMB361 BREAST | 0.881 ± 0.035 | 0.872 ± 0.096 | 0.82 ± 0.045 | 0.825 ± 0.076 | 1.53 ± 0.14 | 0.91 ± 0.04 | 0.837 ± 0.072 | 0.719 ± 0.07 | 0.838 ± 0.094 | 0.87 ± 0.039 | 0.829 ± 0.083 | 0.812 ± 0.049 | 0.867 ± 0.055 | 0.8863 ± 0.0064 | 0.93 ± 0.083 | 0.842 ± 0.038 |
| MDAMB436 BREAST | 0.954 ± 0.13 | 0.934 ± 0.063 | 0.915 ± 0.083 | 0.93 ± 0.061 | 1.02 ± 0.049 | 0.895 ± 0.052 | 0.953 ± 0.035 | 0.894 ± 0.037 | 0.857 ± 0.024 | 0.807 ± 0.1 | 0.8337 ± 0.0019 | 0.877 ± 0.086 | 0.926 ± 0.029 | 0.946 ± 0.12 | 0.983 ± 0.13 | 0.941 ± 0.033 |
| MDAMB453 BREAST | 1.05 ± 0.053 | 1.04 ± 0.13 | 1.15 ± 0.028 | 1.06 ± 0.072 | 1.09 ± 0.086 | 1.08 ± 0.0082 | 1.01 ± 0.029 | 1.006 ± 0.0072 | 1.02 ± 0.033 | 0.992 ± 0.039 | 0.983 ± 0.02 | 0.986 ± 0.028 | 1.048 ± 0.0087 | 1.05 ± 0.033 | 1.04 ± 0.015 | 1.02 ± 0.028 |
| MDAMB468 BREAST | 0.965 ± 0.013 | 1.04 ± 0.034 | 0.997 ± 0.079 | 1.07 ± 0.052 | 1.18 ± 0.13 | 1.12 ± 0.053 | 1.05 ± 0.11 | 0.961 ± 0.09 | 0.984 ± 0.047 | 1.02 ± 0.059 | 1.05 ± 0.067 | 1.06 ± 0.09 | 1.05 ± 0.039 | 1.05 ± 0.074 | 0.985 ± 0.046 | 1.03 ± 0.095 |
| MFM223 BREAST | 1.19 ± 0.033 | 1.1 ± 0.08 | 1.17 ± 0.031 | 1.14 ± 0.099 | 1.22 ± 0.029 | 1.22 ± 0.015 | 1.2 ± 0.1 | 1.1 ± 0.1 | 1.07 ± 0.076 | 1.02 ± 0.056 | 1.03 ± 0.047 | 1.04 ± 0.053 | 1.1 ± 0.087 | 1.18 ± 0.075 | 1.17 ± 0.092 | 1.15 ± 0.089 |
| MG63 BONE | 1.09 ± 0.022 | 1.06 ± 0.038 | 1.11 ± 0.057 | 1.09 ± 0.042 | 1.09 ± 0.021 | 1.07 ± 0.045 | 1.05 ± 0.041 | 1.03 ± 0.017 | 0.9877 ± 0.0096 | 0.944 ± 0.016 | 0.992 ± 0.02 | 0.981 ± 0.031 | 1.01 ± 0.011 | 0.98 ± 0.015 | 0.928 ± 0.013 | 0.891 ± 0.021 |
| MHM BONE | 1.03 ± 0.038 | 1.005 ± 0.0032 | 1.03 ± 0.027 | 1.05 ± 0.02 | 1.07 ± 0.024 | 1.05 ± 0.015 | 1.03 ± 0.018 | 1.05 ± 0.034 | 0.979 ± 0.035 | 0.964 ± 0.015 | 1 ± 0.022 | 0.995 ± 0.013 | 1 ± 0.019 | 0.999 ± 0.0044 | 0.976 ± 0.024 | 0.949 ± 0.022 |
| NCIH441 LUNG | 1.04 ± 0.067 | 1.02 ± 0.12 | 1.08 ± 0.14 | 1.01 ± 0.077 | 1.1 ± 0.065 | 1.05 ± 0.11 | 1.01 ± 0.046 | 0.948 ± 0.051 | 0.92 ± 0.068 | 0.97 ± 0.033 | 1.03 ± 0.033 | 1.01 ± 0.13 | 0.952 ± 0.063 | 1.04 ± 0.037 | 1.06 ± 0.068 | 1.04 ± 0.017 |
